Laboratory results published in patent publication US20250136655A1, “INJECTION PEN FOR SUBCUTANEOUS ADMINISTRATION OF A PEPTIDE” (Zealand Pharma A/S, priority 2017, published 2025).
Several values for one entry are separate records, joined by “and”; a condition that tells them apart may be missing. Identical values can stand only once. Like-named read-outs stand apart in the source and are kept apart here. One block for each molecule: values may come before it. Ends that are not written are not given here.

Assays:
[1] = cited from earlier work
[2] = Phase 2 clinical trial PK profile of ZP1848 and metabolites in SBS patients; format: in vivo; details: human, plasma
Experimental: The study was designed as a randomized, cross-over and double-blinded with three different doses of ZP1848 (10 mg, 1 mg, 0.1 mg) in 16 SBS patients.
The 18 SBS patients (16 patients completed the study) were randomized evenly and in a double-blinded fashion to each of the six cross-over dose level combinations: 10 mg/1 mg, 10 mg/0.1 mg, 1 mg/10 mg, 1 mg/0.1 mg, 0.1 mg/10 mg, 0.1 mg/1 mg of ZP1848. The patients were injected once daily (QD) subcutaneously with the above doses of ZP1848.
Blood samples for PK analysis were collected on several study visits throughout the study period: the study comprised a 1st baseline balance study (4 days), a 1st treatment period (21 days) including a 1st treatment balance study (last 4 days of 1st treatment period), followed by a wash-out period (at least 4 weeks); and a 2nd baseline balance study (4 days), a 2nd treatment period (21 days) including a 2nd treatment balance study (last 4 days of 2nd treatment period) and a follow-up period (at least 4 weeks).
PK sampling was performed at visit 11 (1st treatment, balance study) and visit 17 (second day of 2nd baseline study-after a wash out period), and again at visit 25 (2nd treatment balance study) and at visit 29 (last day of follow-up period).
At day visit 11 and visit 25 a full PK profile in steady state was investigated. PK samples were taken prior to injection of ZP1848, and at the following time points (+/−10 minutes) after trial product administration: 1 h, 2 h, 4 h, 6 h, 8 h, 10 h, 12 h and 24 h. Each PK sample contained 2 mL of blood, resulting in a total of […] blood drawn for PK purposes. The plasma sample was immediately stored at −80° C. after sampling.
Plasma samples were analyzed after immunoaffinity extraction followed by liquid chromatography mass spectrometry (LC-MS/MS). […] Plasma terminal elimination half-life (T½) was determined as In (2)/ke where ke is the magnitude of the slope of the log linear regression of the log concentration versus time profile during the terminal phase.

[3] = Phase 1 PK trial of glepaglutide in healthy subjects, half-life of metabolite ZP2469; format: in vivo, human; details: per subject; for half-life: human, plasma
Text: A Phase 1, Open-Label, Partially Randomized, 3-Part, Parallel Group Trial to Evaluate the Pharmacokinetic Profile of glepaglutide (ZP1848) After a Single Intravenous Injection and After Multiple Subcutaneous Injections in Healthy Human Subjects A Phase 1 clinical trial to characterize the pharmacokinetic (PK) profiles of glepaglutide (ZP1848) and its primary active metabolites following once-weekly and once daily subcutaneous (SC) injections and after a single intravenous (IV) infusion in healthy subjects was conducted. This included evaluating the pharmacodynamic effects on plasma citrulline levels following SC dosing in healthy subjects. The trial confirmed the feasibility of dosage regimes in which GLP-2 analogues are administered to patients in weekly dosage regimes and compare weekly dosage regimes with daily dosing.
The trial design was a single-center, open-label, partially randomized, 3-part, parallel group trial to characterize the PK profile of glepaglutide administered by SC injection once daily for 7 days (Part 1), SC injection once weekly for 6 weeks (Part 2), and as a single IV infusion (Part 3) in healthy subjects.
Group A: 1 mg glepaglutide once daily, given as single SC injections on Days 1 to 7.
Group B: 5 mg glepaglutide once daily, given as single SC injections on Days 1 to 7.
Group C: 5 mg glepaglutide once weekly, given as single SC injections on Days 1, 8, 15, 22, 29, and 36.
Group D: 10 mg glepaglutide once weekly, given as single SC injections on Days 1, 8, 15, 22, 29, and 36.
Blood samples were collected for the analysis of plasma concentrations of glepaglutide and its primary active metabolites, ZP2469 (ZP18481-34) and ZP2711 (ZP18481-35); samples were assayed using validated analytical methods. The following PK parameter estimates were calculated using standard non-compartmental methods: terminal elimination half-life (t1/2), total body clearance of drug after IV administration (CL; IV dose, parent drug only), apparent total clearance (CL/F; SC doses, parent drug only), volume of distribution at steady state (Vss; IV dose, parent drug only), apparent volume of distribution at steady state (Vss/F; SC doses, parent drug only), volume of distribution (Vz; IV dose, parent drug only), apparent volume of distribution (Vz/F; SC doses, parent drug only), maximum observed plasma concentration (Cmax), area under the plasma concentration-time curve (AUC) over a dosing interval (AUCT), AUC from time zero to infinity (AUCinf), AUC from time zero to the time of the last measurable concentration (AUClast), and time of the maximum observed plasma concentration (tmax). Metabolite exposure (based on Cmax, AUCT, and AUCinf) were determined for each group as a ratio of the 2 primary active metabolites, ZP2469 (ZP18481-34) and ZP2711 (ZP18481-35), relative to the glepaglutide parent drug.
The PK parameters estimates for glepaglutide, ZP2469 (ZP18481-34), and ZP2711 (ZP 18481-35) were listed and summarized using standard descriptive statistics. The primary PK parameters are t1/2 for glepaglutide, ZP2469 (ZP18481-34), and ZP2711 (ZP18481-35); and CL (IV dose), CL/F (SC doses), Vss(IV dose), Vss/F (SC dose), Vz(IV dose), and Vz/F (SC doses) for glepaglutide. The half-life is calculated as LN(2)/ke where ÷ke is estimate from the slope of the terminal part of the LN(concentration) versus time curve, with repeats regressions of LN(concentration) values using the last three points with non-zero concentrations, then the last four points, last five points, etc. Points with a concentration value of zero are not included. Points prior to Cmax are not used. […] 2) ke must be calculated from at least three data points. 3) The estimated slope must be negative, so that its negative ke is positive. The results of the calculations carried out with preliminary data are shown in Table 4, while the results of the calculations with the complete final data set are shown in Table 5. […]

Wistar rats = test: Intestinotrophic effects following 26-week chronic exposure in rats; format: in vivo; details: in words
Experimental: Wistar rats were dosed subcutaneously (SC) with vehicle, 1, 3 and 10 mg/kg ZP1848 on a daily basis for 26 weeks. Further sub-groups of control and high-dose animals were allowed a 6-week recovery period following completion of the dosing period. […] The length and the weight of the small and large intestines were measured at necropsy as indicators of intestinotrophic effects and the intestinal tract was evaluated histologically.

[4] = previous experiments; cited from earlier work
human GLP-2 receptor = molecular target: T1, human GLP-2 receptor (human, UniProt O95838 1-553); test: cell-based or functional assay
T1 sequence (looked up): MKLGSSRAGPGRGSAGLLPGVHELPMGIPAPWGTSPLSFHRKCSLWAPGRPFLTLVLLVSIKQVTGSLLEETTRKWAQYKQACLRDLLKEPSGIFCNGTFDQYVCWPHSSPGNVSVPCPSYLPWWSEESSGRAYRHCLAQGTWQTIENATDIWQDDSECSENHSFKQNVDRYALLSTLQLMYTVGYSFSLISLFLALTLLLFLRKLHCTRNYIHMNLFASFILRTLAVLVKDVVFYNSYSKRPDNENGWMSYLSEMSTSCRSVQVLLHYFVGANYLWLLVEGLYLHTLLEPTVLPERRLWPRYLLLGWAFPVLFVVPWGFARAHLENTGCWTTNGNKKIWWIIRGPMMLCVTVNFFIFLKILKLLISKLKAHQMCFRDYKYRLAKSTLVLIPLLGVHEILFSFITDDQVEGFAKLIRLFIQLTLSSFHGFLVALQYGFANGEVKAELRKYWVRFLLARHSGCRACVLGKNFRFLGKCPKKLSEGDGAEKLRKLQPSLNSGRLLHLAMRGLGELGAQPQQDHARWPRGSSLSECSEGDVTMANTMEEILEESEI

[5] = subcutaneous, Phase 2 study, SBS patients, read-out: terminal plasma half-life

Molecule: CC[C@H](C)[C@H](NC(=O)[C@H](Cc1ccccc1)NC(=O)[C@H](CC(=O)O)NC(=O)[C@H](CCCNC(=N)N)NC(=O)[C@H](C)NC(=O)[C@H](C)NC(=O)[C@H](CC(C)C)NC(=O)[C@H](CC(N)=O)NC(=O)[C@H](CC(=O)O)NC(=O)[C@H](CC(C)C)NC(=O)[C@@H](NC(=O)[C@@H](NC(=O)[C@H](CC(N)=O)NC(=O)[C@H](CCSC)NC(=O)[C@H](CCC(=O)O)NC(=O)[C@H](CC(=O)O)NC(=O)[C@H](CO)NC(=O)[C@H](Cc1ccccc1)NC(=O)[C@H](CO)NC(=O)CNC(=O)[C@H](CC(=O)O)NC(=O)CNC(=O)[C@@H](N)Cc1c[nH]cn1)[C@@H](C)O)[C@@H](C)CC)C(=O)N[C@@H](CC(N)=O)C(=O)N[C@@H](Cc1c[nH]c2ccccc12)C(=O)N[C@@H](CC(C)C)C(=O)N[C@H](C(=O)N[C@@H](CCC(N)=O)C(=O)N[C@H](C(=O)N[C@@H](CCCCN)C(=O)N[C@H](C(=O)N[C@H](C(=O)N[C@@H](CC(=O)O)C(=O)O)[C@@H](C)O)[C@@H](C)CC)[C@@H](C)O)[C@@H](C)CC [Teduglutide]
half-life ([1]; in vivo): about two

Molecule: GLP-2 [3-33]: truncated GLP-2 [3-33] (DGSFSDEMNTILDNLAARDFINWLIQTKITD; Glucagon-like peptide 2; UniProt P01275 148-178, looked up, fragment)
half-life ([1]; in humans): ~0.45 h

Molecule: H-HGEGTFSSELATILDALAARDFIAWLIATKITDKKKKKK-NH2 [ZP1848] [listing 1 of 2 here]
mucosal hyperplasia of the duodenum, jejunum and ileum (Wistar rats; 1, 3 and 10 mg/kg SC daily for 26 weeks): dose-related increase
length and weight of the large intestine (Wistar rats; SC daily for 26 weeks): slightly increased

Molecule: Hy-His-Ala-Asp-Gly-Ser-Phe-Ser-Asp-Glu-Met-Asn-Thr-Ile-Leu-Asp-Asn-Leu-Ala-Ala-Arg-Asp-Phe-Ile-Asn-Trp-Leu-Ile-Gln-Thr-Lys-Ile-Thr-Asp-OH [GLP-2 [1-33]]
half-life ([1]; in humans): around 7 minutes
half-life ([1]; in humans, listed as native GLP-2): seven

Molecule: Teduglutide (peptide)
EC50 Avg (nM), cAMP AlphaScreen in HEK293 cells expressing hGLP-2R (human GLP-2 receptor): 0.03 nM

B1: ZP2711 (peptide)
peptide: HGEGTFSSELATILDALAARDFIAWLIATKITDKK-OH
EC50_Avg (nM), cAMP AlphaScreen in HEK293 cells expressing hGLP-2R (human GLP-2 receptor): 0.072 nM

B2: ZP1848 (peptide)
peptide: HGEGTFSSELATILDALAARDFIAWLIATKITDKKKKKK-NH2
EC50_Avg (nM), cAMP AlphaScreen in HEK293 cells expressing hGLP-2R (human GLP-2 receptor): 0.3 nM

B3: ZP2469 (peptide)
peptide: HGEGTFSSELATILDALAARDFIAWLIATKITDK-OH
EC50_Avg (nM), cAMP AlphaScreen in HEK293 cells expressing hGLP-2R (human GLP-2 receptor): 0.052 nM

B4: ZP1846 (peptide)
peptide: HGEGSFSSELSTILDALAARDFIAWLIATKITDKKKKKK-NH2
EC50_Avg (nM), cAMP AlphaScreen in HEK293 cells expressing hGLP-2R (human GLP-2 receptor): 0.26 nM

B5: ZP2949 (peptide)
peptide: HGEGTFSSELATILDALAARDFIAWLIATKITDKKK-OH
EC50_Avg (nM), cAMP AlphaScreen in HEK293 cells expressing hGLP-2R (human GLP-2 receptor): 0.11 nM

More lines, main results first:

half-life [2, 5]: 120 to 408 h
Half-life of ZP2469 in the interval from 72 to 168 hours post dose ([3]; final results, Group A, 1 mg once daily, after 7 doses): 75 h
Half-life of ZP2469 in the interval from 72 to 168 hours post dose ([3]; final results, Group C, 5 mg once weekly, after 1 dose): 59 h and 75 h
Half-life of ZP2469 in the interval from 72 to 168 hours post dose ([3]; final results, Group C, 5 mg once weekly, after 6 doses): 57 h
Half-life of ZP2469 in the interval from 72 to 168 hours post dose ([3]; final results, Group D, 10 mg once weekly, after 6 doses): 59 h and 53 h and 42 h and 48 h
half-life ([3]; sc, 10 mg, preliminary results, Group D, 10 mg glepaglutide SC once weekly, after 1 dose, read-out: Half-life ZP2469 (converted)): 56 h
half-life ([3]; subcutaneous, 1 mg, final results, Group A, 1 mg once daily, after 7 doses, read-out: Half-life of ZP2469 in the interval from 72 to 168 hours post dose (converted)): 94 h
Half-life ZP2469 ([3]; preliminary results, Group A, 1 mg glepaglutide SC once daily, after 7 doses): 20 h
Half-life ZP2469 ([3]; preliminary results, Group C, 5 mg glepaglutide SC once weekly, after 1 dose): 17 h
Half-life ZP2469 ([3]; preliminary results, Group D, 10 mg glepaglutide SC once weekly, after 1 dose): 38 h and 34 h
Molecule: H-HGEGTFSSELATILDALAARDFIAWLIATKITDK-OH [ZP2469]
Half-life of ZP2469 in the interval from 72 to 168 hours post dose ([3]; final results, Group D, 10 mg once weekly, after 1 dose): 54 h and 46 h and 35 h and 60 h and 26 h and 53 h and 43 h and 33 h and 45 h and 38 h

half-life ([2]; sc, plasma terminal elimination half-life, per subject, after SC once-daily ZP1848, read-out: Half-life (converted)): 336 h
Molecule: H-HGEGTFSSELATILDALAARDFIAWLIATKITDKK-OH [ZP2711]

half-life [2, 5]: 120 to 408 h
Molecule: H-HGEGTFSSELATILDALAARDFIAWLIATKITDKKKKKK-NH2 [ZP1848] [listing 2 of 2 here]
half-life [4]: about 17 hours
